Biological target: T1, CYP90D1 (Arabidopsis thaliana, UniProt Q94IA6)
T1 construct: CYP90D1 mature protein, expressed in E. coli from pCold-GST; fusion cleaved with HRV3C protease
T1 sequence (Q94IA6 1-491): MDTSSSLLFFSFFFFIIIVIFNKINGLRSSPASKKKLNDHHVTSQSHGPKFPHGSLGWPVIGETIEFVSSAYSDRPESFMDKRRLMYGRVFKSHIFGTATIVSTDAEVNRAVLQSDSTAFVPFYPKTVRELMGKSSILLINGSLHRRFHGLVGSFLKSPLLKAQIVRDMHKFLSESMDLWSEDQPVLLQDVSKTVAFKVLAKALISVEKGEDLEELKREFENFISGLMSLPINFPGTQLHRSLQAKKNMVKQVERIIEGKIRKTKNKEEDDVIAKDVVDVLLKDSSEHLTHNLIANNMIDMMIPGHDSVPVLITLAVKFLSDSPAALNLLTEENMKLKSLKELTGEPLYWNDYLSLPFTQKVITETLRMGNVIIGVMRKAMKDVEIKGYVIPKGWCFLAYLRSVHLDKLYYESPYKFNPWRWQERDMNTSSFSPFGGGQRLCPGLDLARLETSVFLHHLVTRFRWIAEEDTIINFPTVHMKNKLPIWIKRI
Assay: optical difference spectroscopy (type II binding spectrum) titration of purified recombinant CYP90D1

Kd: ~790 nM
SMILES: CCOc1ccccc1OCC1COC(Cn2cncn2)(c2ccc(Cl)cc2)O1 (stereo not shown) [YCZ-18]
